Reference: patent US10766855B2, “Hydroxamate triterpenoid derivatives” (VIVACELL BIOTECHNOLOGY ESPANA S.L., priority 2016, dated 2020)

Assays:
[1] = tested on: STHdhQ7/Q7 and STHdhQ111/Q111 striatal cells; test: 3-NP-induced cytotoxicity in striatal Q7 and Q111 cells (YOYO-1); type: cell-based, mouse; conditions: 6 h pre-treatment, 3-NP 10 mM 24 h; compound VII increasing concentrations, DFX 50 μM
Protocol: FIG. 8. Compound VII abrogates 3-NP toxicity in Q7 and […] striatal cells. Q7 and Q111 Striatal cells were pretreated with increasing concentrations of compound VII for 6 h and then exposed to 3-NP (10 mM) for an additional 24 h, after which YOYO-1 staining was used to investigate cell death. Cell death was determined using the IncuCyte HD software and the treatment with 3-NP alone in Q111 cells was considered as 100% of cell death.
To investigate whether HIF activation in striatal Q7 and Q111 cells is sufficient to protect striatal neurons (provide neuroprotection), the effect of compound VII on 3-NP induced death was examined. […]
STHdh^Q7/Q7 and STHdh^Q111/Q111 cells (10^4 cells/well in 96-well plates) were incubated with YOYO-1 (Life Technologies) and then treated with 3-NP (10 mM) and or DFX (50 μM) as a positive control for PHDs inhibition. […] The uptake of YOYO-1 by damaged cells correlates with the increase in YOYO-1 fluorescence. Treated cells are placed in an Incucyte FLR imaging system, and the YOYO-1 fluorescence is measured after 24 h of 3-NP treatment. Following the incubation period object counting analysis was performed using the Incucyte FLR software to calculate the total number of YOYO-1 fluorescence positive cells and total DNA containing objects (end point). […]

[2] = tested on: NF-κB; test: NF-κB inhibition in NIH-3T3-KBF-Luc cells stimulated with TNFα; type: cell-based; conditions: TNFα 30 ng/ml, 6 h
Protocol: To further study the target selectivity of the compounds described in the present invention the effect of the natural triterpenoids (OA; BA, UA, and MA), compounds II to XV of Formula (I) disclosed in present invention, and of comparative compound CDDO-Me on NF-κB inhibition, STAT-3 inhibition, Nrf2 activation and TGR5 activation was analyzed. For this study cell lines NIH-3T3-KBF-Luc, HeLa-STAT3-Luc, HaCaT-ARE-Luc and CHO-TGR5-CRE-luc were used respectively. The NIH3T3-KBF-Luc cell line stably transfected with the plasmid KBF-Luc plasmid, which contains three copies of NF-κB binding site (from major histocompatibility complex promoter), fused to a minimal simian virus 40 promoter driving the luciferase gene. Cells (1×10^4/well) were seeded in 96-well plates, treated with increasing concentrations of the compounds II to XV for 15 min and then stimulated with 30 ng/ml TNFα. After 6 h the luciferase activity in the cell lysates was measured as indicated above.

[3] = tested on: HIF-2α; test: HIF-2α stabilization in hIPCs (Western blot); type: cell-based, human; conditions: increasing concentrations, 3 h
Protocol: Stimulation of human Islet-Derived Precursor Cells (hIPCs) with increasing concentrations of compound VII or with DFX (150 μM) during 3 h, and the expression of HIF-2α, PHD3 and β-actin determined by Western blots.
Since PDH2 and PDH3 also regulate the expression of HIF-2α, the effect of compound VII on HIF-2α stabilization in Human Islet-Derived Precursor Cells (hIPCs) obtained from Innoprot SL (Spain) (reference p10472) was investigated. hIPCs were stimulated with the increasing concentrations of compound VII or with DFX (150 μM) during 3 h. After that, proteins isolation and western blots were performed as in FIG. 3. The antibodies against HIF-2α (ab8365) and PHD3 (ab30782) were from Abcam (Cambrigde, UK), and the antibody anti-β-actin (AC-74) was purchased from Sigma-Aldrich (Saint Louis, Mo., USA). (FIG. 5).

[4] = tested on: HUVEC; test: Endothelial cell tube formation (angiogenesis) in HUVEC co-cultured with fibroblasts; type: cell-based, human; conditions: 1 μM, 7 days
Protocol: Measurements of endothelial cell tube formation as a model of angiogenesis in green fluorescent Human endothelial vascular cells (HUVEC) co-cultured with primary fibroblasts and stimulated separately with compound VII (1 μM), rhFGF (10 ng/ml) and VEGFA (10 ng/ml) for 7 days. Values represent the mean±SEM (n=3).
To test the functional consequences of compound VII stimulation in a physiological model, endothelial cell tube formation was measured as a model of angiogenesis. CellPlayer™ GFP AngioKit-96 (Essen BioScience Inc., Welwyn Garden City, UK) was supplied as growing co-cultures of human matrix (normal human dermal fibroblast, NHDF) and endothelial cells (HUVEC) at the earliest stages of tubule formation. CellPlayer 96-well kinetic angiogenesis assay was performed according to the manufacturer's protocol. Briefly, lentivirally infected green fluorescent protein (GFP)-HUVECs were cocultured with normal human dermal fibroblasts in a 96-well microplate. The plate was placed in IncuCyte, and images were automatically acquired in both phase and fluorescence every 6 hours for 7 days. […] Tube formation over the 7-day assay was quantified using the Essen BioScience Angiogenesis Analysis Module. […] Briefly, the fluorescent images were analyzed to generate a segmentation mask closely resembling the in vitro network. […]

## C=C(C)[C@@H]1CC[C@]2(C(=O)NO)CC[C@]3(C)[C@H](CC[C@@H]4[C@@]5(C)CC[C@H](O)C(C)(C)[C@@H]5CC[C@]43C)[C@@H]12 [Compound VII, (3β) 3-Hydroxy-N-hydroxy-lup-20(29)-en-28-amide]
[1]
  neuroprotection to 3-NP-induced cytotoxicity (cell death): clearly provided a significant level of neuroprotection
[2]
  IC50: > 50 µM
[3]
  HIF-2α expression: stabilized HIF-2α expression
  expression of PHD3: without affecting the expression of PHD3
[4]
  network length in HUVEC cells: increased significantly the network length
